Measured values from patent US8377963B2, “Insulin-regulated aminopeptidase (IRAP) inhibitors and uses thereof” (Howard Florey Institute, priority 2007, dated 2013).

Tests used:
rats [1] = assay: Elevated plus maze (stress or anxiety); assay type: in vivo, rat; settings: for Time spent in the open arm (% control): rats, n=8 per group
Method: (§1) All experiments were performed according to the National Health and Medical Research Council of Australia “Code of practise for the care and use of animals for scientific purposes”. Male Spraque Dawley rats, (250-270 g) are housed individually and given water and standard rat chow ad libitum. On the day of surgery, the rats were anaesthetized with 5% isofluorane, placed in a stereotaxic frame and maintained on 2% isofluorane for the duration of the cannula implantation procedure. The rats were stereotaxically implanted with chronic indwelling cannula (Plastics One) into the cerebral lateral ventricles using the following flat skull coordinates 0.8 mm posterior to Bregma, 1.55 mm lateral to midline and 3.5 mm ventral to the dura. The cannula was then secured to the skull with stainless steel screws and dental cement. Seven days following surgery, proper cannula placement was verified by a bolus injection of angiotensin II (1 nmol/μl).
The elevated plus maze was used to investigate the potential effect of IRAP inhibitors on stress or anxiety. The elevated plus maze consists of two open arms (70×10 cm) with a 5 cm high surrounding wall and two enclosed arms (70×10 cm) with a 27 cm high surrounding wall. The floor of the open and closed arms are white laminate, the open arm walls are clear perspex, and the closed arms walls dark grey perspex. The maze is elevated 85 cm above the ground in the centre of a room that is lit by overhead lights generating 1241 ux. […] The time spent in the closed arms compared to the open arms was a measure of the anxiety status of the animals.

[2] = tested on: Glucose-6-phosphate dehydrogenase/glucose hexokinase; assay: Glucose-6-phosphate dehydrogenase and hexokinase activity, fluorimetric assay; settings: 100 μM
Method: Glucose-6-phosphate dehydrogenase and hexokinase activity. Glucose-6-phosphate dehydrogenase and hexokinase activity in the absence and presence of the compounds was determined in a fluorimetric assay. Ten mM Tris MgCl2 buffer (total volume of 200 ml) containing glucose-6-phosphate dehydrogenase, 0.3M ATP, 30 mM NADP+ was added to 96 well microtitre plate together with 20 μl of compound, a reading at excitation 350 nm and emission 510 nm was taken followed by the addition of hexokinase and another reading.

[3] = target: Angiotensin converting enzyme 1 (Homo sapiens, UniProt P12821); assay: Angiotensin converting enzyme assay; assay type: biochemical; settings: read-out: % inhibition of the catalytic activity of the enzyme
Sequence of Angiotensin converting enzyme 1 (P12821 30-1306): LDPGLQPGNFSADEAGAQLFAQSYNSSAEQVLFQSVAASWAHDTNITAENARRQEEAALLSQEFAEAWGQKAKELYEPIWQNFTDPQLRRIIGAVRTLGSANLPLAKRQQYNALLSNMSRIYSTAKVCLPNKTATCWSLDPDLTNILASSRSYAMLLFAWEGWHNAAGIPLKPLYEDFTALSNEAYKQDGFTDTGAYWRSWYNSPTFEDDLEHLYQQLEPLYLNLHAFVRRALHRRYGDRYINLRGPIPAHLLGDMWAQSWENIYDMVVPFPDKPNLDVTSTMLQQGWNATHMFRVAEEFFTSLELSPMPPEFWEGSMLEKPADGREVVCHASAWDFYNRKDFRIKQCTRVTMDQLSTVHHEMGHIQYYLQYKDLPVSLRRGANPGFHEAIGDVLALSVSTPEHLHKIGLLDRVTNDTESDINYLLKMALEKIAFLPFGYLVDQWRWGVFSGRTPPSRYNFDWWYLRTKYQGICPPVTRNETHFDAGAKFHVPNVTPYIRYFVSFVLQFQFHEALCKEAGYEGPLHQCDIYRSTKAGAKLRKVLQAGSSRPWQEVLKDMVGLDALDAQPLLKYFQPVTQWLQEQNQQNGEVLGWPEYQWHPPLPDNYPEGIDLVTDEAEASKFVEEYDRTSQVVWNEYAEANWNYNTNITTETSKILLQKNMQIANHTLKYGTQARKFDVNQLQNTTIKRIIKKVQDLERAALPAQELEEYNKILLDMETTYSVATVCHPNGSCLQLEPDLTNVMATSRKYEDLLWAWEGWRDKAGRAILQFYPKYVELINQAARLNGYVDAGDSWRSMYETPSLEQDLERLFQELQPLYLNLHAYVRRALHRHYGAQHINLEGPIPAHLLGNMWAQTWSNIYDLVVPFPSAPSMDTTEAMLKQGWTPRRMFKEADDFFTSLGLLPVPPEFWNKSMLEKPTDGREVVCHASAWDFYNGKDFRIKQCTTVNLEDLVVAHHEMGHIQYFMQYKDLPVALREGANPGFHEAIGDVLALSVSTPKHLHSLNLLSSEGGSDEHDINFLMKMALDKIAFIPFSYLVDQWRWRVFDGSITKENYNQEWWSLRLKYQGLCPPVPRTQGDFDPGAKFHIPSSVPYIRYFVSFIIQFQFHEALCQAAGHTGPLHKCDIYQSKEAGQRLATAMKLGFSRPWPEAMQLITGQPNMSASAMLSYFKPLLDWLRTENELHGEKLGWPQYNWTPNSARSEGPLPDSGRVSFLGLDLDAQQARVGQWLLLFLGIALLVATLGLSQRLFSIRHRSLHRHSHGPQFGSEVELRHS
Method: Angiotensin converting enzyme assay. The enzyme (final concentration 0.02 pmol/100 L) was incubated with 200 μL of assay solution that included 5 mmol/L HHL in 100 mmol/L potassium buffer (pH 8.3) that contained 300 mmol/L NaCl and 10^−4 mol/L ZnSO4 for 3 hours at 37° C. The enzymatic reaction was stopped by the addition of 1.5 mL of 0.28N NaOH, 100 μL of o-phthaldialdehyde (20 mg/mL) in methanol was added and the fluorescent reaction stopped by the addition of 200 μL of 3N HCl. The product, L-His-Leu, was measured fluorometrically (360 nm excitation and 500 nm emission).
Limited inhibition of control enzymes was observed.

rats [4] = assay: Novel object recognition task; assay type: in vivo, rat; settings: for Recognition Index: rats, n=10/group
Method: as §1
The rats are allowed at least 5 days post-operative recovery prior to use in any behavioural paradigms. On the day of the acquisition trial, the rats were habituated for 5 min in the testing box (made from grey perspex of dimensions 60 cm width×60 cm length×50 cm height) in diffuse dim light and then returned to their home cage. The animals were then rested for at least 2 h and then injected with 1 nmol or 0.1 nmol Compound 2 in 2 μl of 10% dimethyl sulfoxide (DMSO). Control animals received 2 μl of 10% DMSO. Following drug administration, the rats were returned to their home cage for 5 min and then placed in the testing box facing the opposite direction to 2 identical objects that have been secured to the floor in adjacent corners of the box. The rats were allowed 5 min to explore the objects and the definition of explore is that the animal's nose is less than 2 cm from object when it is facing the object. […] The recognition index was determined as the time spent exploring the novel object minus the time spent on the familiar object divided by the time spent on both object.

rats [5] = assay: Spontaneous alternation plus maze; assay type: in vivo, rat; settings: for Spontaneous Alternation Score (%): rats, n=8/group
Method: as §1
The plus maze was composed of four arms with each arm measuring 75×10×20 cm. The floor and walls of the central platform and the floors of the arms were made of black plastic. Spontaneous alternation testing was conducted by placing the rat on the center platform of the maze and allowing 20 min of unimpeded exploration. The number and sequence of arm entries were recorded for calculation of a percent alternation score. An alternation consisted of 4 different arm choices of 5 consecutive arm entries. A ⅘ alternation score was computed by dividing the number of observed alternations in overlapping quintuplets by the number of possible alternations and multiplying the quotient by 100.

[6] = 0.1 nmol intracerebroventricularly
[7] = 1 nmol intracerebroventricularly

## CCOC(=O)C1=C(NC(C)=O)Oc2cc(O)ccc2C1c1cccnc1 (stereo not drawn) [Compound 2, Ethyl 2-(acetylamino)-7-hydroxy-4-pyridin-3-yl-4H-chromene-3-carboxylate]
Rats [1]; [6]
  Time spent in the open arm (% control): 121.62 ± 28.26 % control
Rats [1]; [7]
  Time spent in the open arm (% control): 127.88 ± 19.18 % control
Rats [1]; 0.1 and 1 nmol intracerebroventricularly
  stress compared to vehicle, by time spent in the open arm of the elevated plus maze: not significantly more or less stressed
[2]
  % inhibition of the catalytic activity of the enzyme: 0%
[3]; 10 μM
  inhibition at 10 µM: 9%
[3]; 100 μM
  inhibition at 100 µM: 3%
Rats [4]; [6]
  Recognition Index: 35.82 ± 7.30
Rats [4]; [7]
  Recognition Index: 45.09 ± 9.97
Rats [4]; 1 and 0.1 nmole intracerebroventricularly, after 24 h, p<0.05
  recognition of a novel object compared to vehicle treated control rats: better recognition of a novel object
Rats [5]; [6]
  Spontaneous Alternation Score (%): 73.70 ± 3.14 %
Rats [5]; 0.1 nmole, p<0.01
  spontaneous alternation scores compared to vehicle treated control rats: significantly enhanced spontaneous alternation scores
Rats [5]; [7]
  Spontaneous Alternation Score (%): 64.34 ± 2.49%
